The values below come from patent US20180251431A1 (VERTEX PHARMACEUTICALS INCORPORATED, priority 2016, published 2018).

SMILES strings stand for the structures. Where only a bound is given, the exact number is not on record here.

One test deals with HEK293 cells. As to the kind of experiment: HEK293 VLCFA-LPC IC50 determination (13C-labeled C26:0 LPC by UHPLC/MS). Type of test: cell-based, human. The settings on record: Homo sapiens, HEK293, 48 h, average of one or more replicates; 13C-labeled C26:0 LPC, 48 hours; read-out: Average HEK293 IC50. The method, then: HEK293 cells were treated with compounds, such as those listed in Tables A-E of Example 1, using the representative manual protocols described below. The protocols below were also adapted to a semi-automated protocol using standard methods in the art.
Cell Culture Growth Conditions:
HEK293 cells were maintained in FreeStyle F17 media (Gibco # A13835) supplemented with PenStrep (1%, Gibco #15070-063), Glutamax (2%, Gibco #35050-061), and Pluronic (0.1%, Gibco #24040-032) (“supplemented media”). Suspension cultures were grown in disposable Erlenmeyer flasks at about 120 rpm, 37° C., 5% CO2, and 80% humidity. Cell densities were kept between about 0.5 and 3 million cells per mL, in about 50-200 mL per flask.
Treatment of Cells with Compounds Provided Herein:
The cells were treated with compounds using either a total of 900 uL cell media volume (high-volume assay) or a total of 200 uL cell media volume (low-volume assay). In the high volume assay, 450 μL of supplemented media plus 13C-acetate (1.0 mg/mL, Sigma Aldrich #282014) were added to 0.5 μL of a compound (such as those in Tables A-E) in DMSO in a polypropylene v-bottom plate (Costar #3363) in 1 of 3 dilution schemes. The contents of each well were mixed and transferred to a sterile polypropylene deep-well v-bottom plate (Costar #3960). 450 μL of cultured HEK293 cells in supplemented media at a density of 1.0 million cells/mL was added to each well. In the low volume assay, 100 μL of supplemented media plus 13C-acetate (1.0 mg/mL, Sigma Aldrich #282014) were added to either 0.1 μL or 1.0 uL of a compound (such as those in Tables A-E) in DMSO in a polypropylene v-bottom plate (Costar #3363) in 1 of 3 dilution schemes. 100 μL of cultured HEK293 cells in supplemented media at a density of 1.0 million cells/mL was added to each well. The high volume and low volume plates were sealed with either AirPore Tape Sheets (Qiagen #19571) or Duetz plate covers to control evaporation and placed into a shaking incubator at 225 rpm, 37° C., 5% CO2, and 80% humidity for 48 hours. For both the high and low volume assays the 3 dilution schemes used were as follows:
Following incubation, treated cells were harvested by centrifugation at 1690×g for 10 minutes. In the high volume assay 200 uL treated cells were transferred to a polypropylene v-bottom plate (Costar #3363) prior to centrifugation. In the low volume assay the incubation plate was centrifuged directly, without a transfer step. The supernatant was then discarded and the analytes were extracted using 1 of 2 different extraction schemes. In the first scheme, the cell pellet was visibly broken up by mixing the cell pellet up and down in 100 μL of hexane/isopropanol (60:40) 20 times. The resulting mixture was transferred to a 0.45 μm Durapore membrane (Millipore #MSH VN4510) atop a polypropylene v-bottom plate (Costar #3363) and filtered by centrifugation at 1690×g for 5 minutes. 120 μL of n-butanol containing 10 nM C13:0 lysophosphatidylcholine was added to the filtrate as an injection control standard, then the entire volume was transferred to a new Durapore membrane/v-bottom plate. In the second scheme, the cell pellet was visibly broken up by mixing the cell pellet up and down in 180 μL of methanol containing 10 nM C13:0 lysophosphatidylcholine 20 times. The resulting mixture was transferred to a 0.45 μm Durapore membrane (Millipore #MSH VN4510) atop a polypropylene v-bottom plate and filtered by centrifugation at 1690×g for 5 minutes. In both schemes, the plates were then sealed with pierceable capmats (Micronic MP53017) and stored at −20 OC until analyzed.
UHPLC/Mass Spectrometry Readout:
The filtered organic extraction was analyzed with a 1290 Agilent Infinity Series UHPLC coupled to an ABI Sciex QTrap 6500 mass spectrometer. […]
A word on the IC50: it is the midpoint of a concentration-inhibition curve. Regarding `O=C(Nc1ccn(-c2cnc(Cl)c(Cl)c2)n1)C1(c2ccccc2F)CC1` [Compound 379, N-[1-(5,6-dichloro-3-pyridyl)pyrazol-3-yl]-1-(2-fluorophenyl)cyclopropanecarboxamide], the IC50 came to 120 nM. Take `COc1ncc(-n2ccc(NC(=O)C3(c4ccccc4F)CC3)n2)cc1F` [Compound 348, N-[1-(5-fluoro-6-methoxy-3-pyridyl)pyrazol-3-yl]-1-(2-fluorophenyl)cyclopropanecarboxamide]: the concentration for half-maximal inhibition (IC50) was found to be 33 nM.

The test is the same for the next values; noted with them: Homo sapiens, HEK293, HEK293 cells; average of one or more replicates; read-out: Average HEK293 IC50.
As to `COc1cc(-n2ccc(NC(=O)C3(c4ccccc4F)CC3)n2)ccc1F` [Compound 468, N-[1-(4-fluoro-3-methoxy-phenyl)pyrazol-3-yl]-1-(2-fluorophenyl)cyclopropanecarboxamide], the IC50 is > 5000 nM. In the case of `O=C(Nc1ccn(-c2ccccc2)n1)C1(c2ccccc2)CC1` [Compound 2, 1-phenyl-N-(1-phenyl-1H-pyrazol-3-yl)cyclopropane-1-carboxamide], the IC50 was found to be 20 nM. Regarding `O=C(Nc1ccn(-c2ccccc2)n1)[C@]1(c2ccccc2)CC12CCCC2` [Compound 145, (2R)-2-phenyl-N-(1-phenylpyrazol-3-yl)spiro[2.4]heptane-2-carboxamide], the IC50 was > 5000 nM.

In the case of `O=C(Nc1ccn(-c2cc(F)cc(F)c2)n1)C1(c2ncccn2)CC1` [Compound 534, N-[1-(3,5-difluorophenyl)pyrazol-3-yl]-1-pyrimidin-2-yl-cyclopropanecarboxamide], the IC50 is > 5000 nM. Turning to `O=C(Cc1ccccn1)Nc1ccn(-c2ccccc2)n1` [Compound 40, N-(1-phenylpyrazol-3-yl)-2-(2-pyridyl)acetamide], the IC50 is 1500 nM. For `Cc1cc(NC(=O)C2(c3ccccc3F)CC2)nn1-c1ccccc1` [Compound 386, 1-(2-fluorophenyl)-N-(5-methyl-1-phenyl-1H-pyrazol-3-yl)cyclopropane-1-carboxamide], the IC50 was > 5000 nM.

`Cc1ccc(CC(=O)Nc2ccn(-c3ccccc3)n2)cc1` [Compound 42, N-(1-phenylpyrazol-3-yl)-2-(p-tolyl)acetamide]: the 50% inhibitory concentration (IC50) came to 710 nM. As for `O=C(Nc1ccn(-c2cncc(Cl)c2)n1)C1(c2ncccc2F)CC12CC2` (stereo not shown) [Compound 520, N-[1-(5-chloro-3-pyridyl)pyrazol-3-yl]-2-(3-fluoro-2-pyridyl)spiro[2.2]pentane-2-carboxamide], the half-inhibitory concentration (IC50) was determined as 1600 nM.

For `O=C(Nc1ccn(-c2cc(F)ncc2F)n1)C1(c2ccccc2)CC1` [Compound 115, N-[1-(2,5-difluoro-4-pyridyl)pyrazol-3-yl]-1-phenyl-cyclopropanecarboxamide], the IC50 was found to be 120 nM. In the case of `O=C(Nc1ccn(-c2cc(F)cc(F)c2)n1)C1(c2ncccc2F)CC12CC2` (stereo not shown) [Compound 524, N-[1-(3,5-difluorophenyl)pyrazol-3-yl]-2-(3-fluoro-2-pyridyl)spiro[2.2]pentane-2-carboxamide], the half-maximal inhibitory concentration (IC50) worked out at 1500 nM. Regarding `O=C(Nc1ccn(-c2ccccc2)n1)C1(c2ccc3c(c2)OC(F)(F)O3)CC1` [Compound 292, 1-(2,2-difluoro-1,3-benzodioxo1-5-yl)-N-(1-phenylpyrazol-3-yl)cyclopropanecarboxamide], the IC50 was 85 nM. As for `N#Cc1ccccc1C1(C(=O)Nc2ccn(-c3ccccc3)n2)CC1` [Compound 242, 1-(2-cyanophenyl)-N-(1-phenylpyrazol-3-yl)cyclopropanecarboxamide], the IC50 was > 2000 nM.

`O=C(Cc1ccccc1F)Nc1ccn(-c2cccc(C(F)(F)F)c2)n1` [Compound 158, 2-(2-fluorophenyl)-N-[1-[3-(trifluoromethyl)phenyl]pyrazol-3-yl]acetamide]: the concentration for half-maximal inhibition (IC50) is 2900 nM.

As for `CN(C)c1ccc(-n2ccc(NC(=O)C3(c4ccccc4F)CC3)n2)cn1` [Compound 394, N-[1-[6-(dimethylamino)-3-pyridyl]pyrazol-3-yl]-1-(2-fluorophenyl)cyclopropanecarboxamide], the IC50 is > 5000 nM.

As for `O=C(Cc1ccccc1F)Nc1ccn(-c2nccs2)n1` [Compound 90, 2-(2-fluorophenyl)-N-(1-thiazol-2-ylpyrazol-3-yl)acetamide], the IC50 was found to be 350 nM. Turning to `Cc1cc(C)cc(C2(C(=O)Nc3ccn(-c4ccccc4)n3)CC2)c1` [Compound 36, 1-(3,5-dimethylphenyl)-N-(1-phenylpyrazol-3-yl)cyclopropanecarboxamide], the IC50 was > 5000 nM. With `COc1cccc(-n2ccc(NC(=O)C3(c4ccccc4F)CC3)n2)n1` [Compound 502, 1-(2-fluorophenyl)-N-[1-(6-methoxy-2-pyridyl)pyrazol-3-yl]cyclopropanecarboxamide], the IC50 is > 5000 nM. Take `Cn1cccc1CC(=O)Nc1ccn(-c2ccnc(F)c2)n1` [Compound 309, N-[1-(2-fluoro-4-pyridyl)pyrazol-3-yl]-2-(1-methylpyrrol-2-yl)acetamide]: the IC50 is > 5000 nM.

Take `O=C(Nc1ccn(-c2cc(F)cc(F)c2)n1)C1(c2ccccc2)CC1` [Compound 308, N-(1-(3,5-difluorophenyl)-1H-pyrazol-3-yl)-1-phenylcyclopropane-1-carboxamide]: the half-maximal inhibitory concentration (IC50) is 140 nM. Consider `COc1cccc(CC(=O)Nc2ccn(-c3ccccc3)n2)c1` [Compound 46, 2-(3-methoxyphenyl)-N-(1-phenylpyrazol-3-yl)acetamide], for which the IC50 was > 5000 nM. With `O=C(Cc1ccccc1F)Nc1ccn(-c2cccc(F)c2)n1` [Compound 126, 2-(2-fluorophenyl)-N-[1-(3-fluorophenyl)pyrazol-3-yl]acetamide], the IC50 was found to be 500 nM.

Consider `Cc1cc(NC(=O)C2(c3ncccc3F)CC23CC3)nn1-c1ccc(F)cc1F` (stereo not shown) [Compound 523, N-[1-(2,4-difluorophenyl)-5-methyl-pyrazol-3-yl]-2-(3-fluoro-2-pyridyl)spiro[2.2]pentane-2-carboxamide], for which the IC50 was > 2000 nM. Same read-out and setting: to `O=C(Nc1ccn(-c2ccccc2F)n1)C1(c2ccccc2F)CC1` [Compound 186, 1-(2-fluorophenyl)-N-(1-(2-fluorophenyl)-1H-pyrazol-3-yl)cyclopropane-1-carboxamide] belongs 140 nM; to `O=C(Cn1ccnc1)Nc1ccn(-c2ccnc(F)c2)n1` [Compound 286, N-[1-(2-fluoro-4-pyridyl)pyrazol-3-yl]-2-imidazol-1-yl-acetamide], 5000 nM; to `O=C(Nc1ccn(-c2ccc(F)c(Cl)c2)n1)C1(c2ccccc2)CC1` [Compound 200, N-[1-(3-chloro-4-fluoro-phenyl)pyrazol-3-yl]-1-phenyl-cyclopropanecarboxamide], 700 nM. As for `O=C(Cc1ccsc1)Nc1ccn(-c2ccccc2)n1` [Compound 5, N-(1-phenylpyrazol-3-yl)-2-(3-thienyl)acetamide], the IC50 is 410 nM. Turning to `O=C(Cc1ccccc1F)Nc1ccn(-c2ccccc2F)n1` [Compound 187, 2-(2-fluorophenyl)-N-[1-(2-fluorophenyl)pyrazol-3-yl]acetamide], the IC50 worked out at 520 nM. Take `O=C(Nc1ccn(-c2cnccn2)n1)C1(c2ccccc2)CC1` [Compound 233, 1-phenyl-N-(1-pyrazin-2-ylpyrazol-3-yl)cyclopropanecarboxamide]: the IC50 is 1500 nM.

Staying with this test, now noted: average of one or more replicates; 13C-labeled C26:0 LPC, 48 hours; read-out: Average HEK293 IC50.
`O=C(Nc1ccn(-c2ccnc(F)c2)n1)C1(c2ccccc2)CC1(F)F` (single isomer, unassigned) [Compound 369]: the IC50 was 36 nM.
